Data taken from publication PMC8224453, “A New PqsR Inverse Agonist Potentiates Tobramycin Efficacy to Eradicate Pseudomonas aeruginosa Biofilms” (Advanced Science, 2021).
Converted amounts (≈) assume the structure as drawn. Like-named read-outs stand apart in the source and are kept apart here.

Legend:
[1] = target: T1, 5-HT2A (Homo sapiens, UniProt P28223); test: CEREP off-target panel, agonist radioligand; assay type: binding; details: @10µM
T1 construct: Eurofins Discovery (SafetyScreen44 Panel, Cerep) P270
Experimental: (§1) 5. In vitro ADME/T and Safety Pharmacology
(§2) 5.1. CEREP off-targets assay
(§3) Experiments towards possible off-target effects were conducted following Eurofins Discovery protocol. Detailed information about the assays can be found in: https://www.eurofinsdiscoveryservices.com/catalogmanagement/viewitem/SafetyScreen44- […]
(§4) Table S3. Possible CEREP off-targets. entry off-target QSI 4 QSI 17 Assay
(§5) (%binding (%binding method
(§6) (1 picture or pasted object on this page, not shown here)

[2] = system: AR; test: CEREP off-target panel, agonist radioligand; assay type: binding; details: @10µM
Experimental: as §1, §2, §3, §4, §5, §6

[3] = target: T2, 5-HT2B (Homo sapiens, UniProt P41595); test: CEREP off-target panel, agonist radioligand; assay type: binding; details: @10µM
T2 construct: Eurofins Discovery (SafetyScreen44 Panel, Cerep) P270
Experimental: as §1, §2, §3, §4, §5, §6

[4] = target: T3, hERG channel (Homo sapiens, UniProt Q12809); test: hERG functional patch-clamp inhibition assay; assay type: cell-based
T3 construct: Cyprotex (contract assay)
Experimental: 5.2. CYP and hERG inhibition
Assessment of in vitro drug safety regarding Cytochrom P450 (CYP) inhibition and inhibiton of human ether-à-go-go related gene (hERG) channel with a functional (patch-clamp-based) assay were performed at Cyprotex. Detailed information about the assays can be found in: https://www.cyprotex.com/admepk/in-vitro-metabolism/cytochrome-p450-inhibition, and […]

[5] = Kinetic turbidimetric solubility assay; assay type: physicochemical; details: PBS; for solubility kinetic at 5 min: aqueous buffer, kinetic from dmso stock, read-out: Kinetic solubility S kin
Experimental: 5.4. Kinetic Turbidimetric Solubility Assay
The desired compounds were sequentially diluted in DMSO in a 96-well plate. A 3 µL of each well were transferred into another three 96-well plates, followed by addition of 147 µL of PBS. Plates were shaken for 5 min at 600 rpm at room temperature (r.t.), and the absorbance at 620 nm was measured. Absorbance values were normalized by blank […]
subtraction and plotted using GraphPad Prism 8.4.2 (GraphPad Software, San Diego, CA, […]

[6] = Metabolic stability, mouse liver S9; assay type: in vitro ADME
Experimental: For the evaluation of combined phase I and phase II metabolic stability, the compound (1 μM) was incubated with 1 mg/mL pooled liver S9 fraction from the respective species (Xenotech), […]
2 mM NADPH, 1 mM UDPGA, 10 mM MgCl2, 5 mM GSH and 0.1 mM PAPS at 37 °C for […]
0, 5, 15, 30 or 60 min. The metabolic stability of Testosterone (1 μM) and verapamil (1 μM) […]
were determined in parallel to confirm the enzymatic activity of the S9 fraction. The […]
incubation was stopped by precipitation of S9 enzymes with 2 volumes of cold acetonitrile […]
containing internal standard (750 nM Diphenhydramine). Samples were stored on ice for 10 […]
min and precipitated protein was removed by centrifugation (10 min, 4 °C, 17,000 g).
Concentration of the remaining test compound at the different time points was analyzed by […]
LC-MS/MS (TSQ Quantum Access MAX, Thermo Fisher, Dreieich, Germany) and used to […]
determine half-life (t1/2). Stability of compound 4 in further S9 fractions are summarized in […]
Table S4. Metabolic stability studies in various S9 fractions. […]

[7] = system: pyocyanin production in PA14 wt; test: Pyocyanin assay in PA14 wt; assay type: cell-based; details: Pseudomonas aeruginosa, PA14, read-out: IC50 pyocyanin
Experimental: The pyocyanin inhibitory effect of the synthesized compounds and the compound (4) loaded SqNPs on PA14 wt were investigated by pyocyanin assay as described in previous work.[2,5] Briefly, PA14 wt was grown in PPGAS medium, overnight, at 37 °C, shaking at 200 rpm. The bacterial suspension was then centrifuged at 7.450 g, washed twice and diluted to a final OD600 (absorption at 600 nm) of 0.02 (2∙10^7 CFU/mL) in fresh PPGAS. 1.5 mL of the […]
(1 picture or pasted object on this page, not shown here) […]
culture was distributed in each well of the 24 well-plate. The free synthesized QSI prepared in DMSO, compound (4) loaded SqNPs were supplemented to bacteria-containing wells (1:100 dilutions). PA14 wt treated with either PBS or drug-free SqNPs (200 μg/mL) served as controls. Following 16 h incubation under aerobic conditions, pyocyanin in 900 μL of bacteria culture was extracted with chloroform and re-extracted with 0.2 M HCl. Pyocyanin production level was measured as the absorption at 520 nm, which was normalized to cell growth measured as OD600. 0.2 M HCl served as blank samples. Three independent experiments were conducted in triplicate. Non-linear regression analysis was performed using […]
(4) loaded SqNPs on PA14 wt. The pyocyanin inhibitory efficacy was improved by a factor of […]
It is noted that as reported in our prior
Figure S2. The production of pyocyanin levels compared to control PA14 wide type (wt) of the samples treated with 200 μg/mL drug free SqNPs. Three independent experiments were conducted in triplicate. […]
(also on this page, place not known: ( 4) -containing -free bacteria re -extracted compo und ( 4) (IC 50 nM ) (IC 50 nM ). drug P A14 5,6,7,8 -tetradeutero-2-heptyl-4(1H)-quinolone standa rd -40 -20 0 20 40 60 80 100 120 0.005 0.05 0.5 pyo production inhibition [%] Compound concentration loaded SqNPs [µM] IC50 = 100 ± 0.018 [nM])

[8] = pooled mouse liver S9 fraction, Table 2, read-out: Metabolic stability t 1/2 S9 mouse

T2 sequence (P41595 whole entry): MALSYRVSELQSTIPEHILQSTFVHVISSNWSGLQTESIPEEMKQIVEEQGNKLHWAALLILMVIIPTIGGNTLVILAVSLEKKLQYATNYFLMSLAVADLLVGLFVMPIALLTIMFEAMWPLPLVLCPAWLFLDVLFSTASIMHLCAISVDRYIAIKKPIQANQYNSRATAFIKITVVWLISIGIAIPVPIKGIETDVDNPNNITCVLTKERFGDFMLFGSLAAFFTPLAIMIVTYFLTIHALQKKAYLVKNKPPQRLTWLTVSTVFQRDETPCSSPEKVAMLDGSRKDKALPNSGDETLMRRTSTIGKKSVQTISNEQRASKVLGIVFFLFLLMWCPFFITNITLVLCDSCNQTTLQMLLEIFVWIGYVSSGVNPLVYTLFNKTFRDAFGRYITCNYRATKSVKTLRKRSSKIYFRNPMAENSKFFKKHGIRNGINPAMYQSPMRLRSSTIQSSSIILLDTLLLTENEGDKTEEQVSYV
T3 sequence (Q12809 whole entry): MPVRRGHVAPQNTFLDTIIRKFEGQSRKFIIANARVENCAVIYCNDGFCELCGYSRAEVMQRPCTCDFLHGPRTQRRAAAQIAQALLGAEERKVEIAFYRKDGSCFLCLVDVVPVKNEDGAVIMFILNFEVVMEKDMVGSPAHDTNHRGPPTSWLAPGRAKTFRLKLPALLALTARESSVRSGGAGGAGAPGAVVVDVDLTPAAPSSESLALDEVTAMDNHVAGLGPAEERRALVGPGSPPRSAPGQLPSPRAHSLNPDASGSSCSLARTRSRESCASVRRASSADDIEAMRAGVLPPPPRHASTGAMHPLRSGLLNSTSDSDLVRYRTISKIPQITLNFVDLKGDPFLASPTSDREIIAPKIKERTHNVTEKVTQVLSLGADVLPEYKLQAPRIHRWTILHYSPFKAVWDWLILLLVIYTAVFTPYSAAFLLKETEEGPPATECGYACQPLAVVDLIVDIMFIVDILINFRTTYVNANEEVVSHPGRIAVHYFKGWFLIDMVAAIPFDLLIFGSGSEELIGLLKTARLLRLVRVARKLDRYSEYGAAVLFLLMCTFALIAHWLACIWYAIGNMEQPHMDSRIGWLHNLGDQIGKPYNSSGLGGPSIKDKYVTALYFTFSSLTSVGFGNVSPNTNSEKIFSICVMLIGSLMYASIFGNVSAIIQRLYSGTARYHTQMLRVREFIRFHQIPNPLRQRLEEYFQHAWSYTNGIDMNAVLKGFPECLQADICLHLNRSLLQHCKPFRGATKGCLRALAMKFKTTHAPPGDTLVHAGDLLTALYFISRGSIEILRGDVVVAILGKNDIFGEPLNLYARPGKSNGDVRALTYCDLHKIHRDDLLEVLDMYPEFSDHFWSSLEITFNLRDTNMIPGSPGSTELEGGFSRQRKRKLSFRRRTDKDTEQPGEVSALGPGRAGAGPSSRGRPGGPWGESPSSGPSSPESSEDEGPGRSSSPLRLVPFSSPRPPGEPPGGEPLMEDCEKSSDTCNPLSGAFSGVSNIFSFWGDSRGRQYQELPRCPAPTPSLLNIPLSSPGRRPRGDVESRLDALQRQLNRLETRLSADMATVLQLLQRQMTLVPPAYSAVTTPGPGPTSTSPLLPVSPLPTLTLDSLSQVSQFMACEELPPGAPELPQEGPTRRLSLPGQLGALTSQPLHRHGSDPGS
T1 sequence (P28223 whole entry): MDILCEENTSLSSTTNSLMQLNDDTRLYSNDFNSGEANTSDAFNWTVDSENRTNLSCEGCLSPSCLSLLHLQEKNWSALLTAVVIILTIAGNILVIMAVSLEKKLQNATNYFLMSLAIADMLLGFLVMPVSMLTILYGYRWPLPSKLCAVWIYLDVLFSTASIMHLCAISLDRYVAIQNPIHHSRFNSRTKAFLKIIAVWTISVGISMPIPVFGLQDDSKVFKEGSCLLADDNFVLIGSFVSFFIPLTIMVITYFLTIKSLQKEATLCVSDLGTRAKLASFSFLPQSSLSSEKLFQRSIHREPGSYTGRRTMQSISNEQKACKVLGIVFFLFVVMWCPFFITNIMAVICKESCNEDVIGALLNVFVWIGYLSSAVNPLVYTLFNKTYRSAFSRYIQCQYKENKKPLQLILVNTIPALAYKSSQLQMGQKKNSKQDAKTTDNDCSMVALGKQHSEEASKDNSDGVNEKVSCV

Row | Structure (SMILES) | % binding, 5-HT2A [1] [%] | % binding, AR [2] [%] | % binding, 5-HT2B [3] [%] | IC50 [4] [nM] | solubility kinetic at 5 min [5] [µM] | half-life at 1 μM ([6]; pooled liver S9 fraction, Table S4, read-out: t1/2 mouse liver S9) [min] | half-life at 1 μM [6, 8] [min] | IC50 [7] [nM] | Kinetic solubility S kin [5] [µM]
1 | FC(F)(F)c1cc(NCc2cn(-c3ccc(Oc4ccccc4)cc3)nn2)ccn1 [Compound 4] | 65.15 | -10.10 | 55.25 | > 25000 | 7.7 (≈ 3.17 µg/mL) | 19.9 ± 7.5 | 29 | 199 | –
2 | COc1ccc(-n2cc(CNc3ccnc(C(F)(F)F)c3)nn2)cc1Cl [Compound 17] | 22.02 | 57.04 | 73.79 | > 25000 | 64 (≈ 24.6 µg/mL) | – | 11 | 350 | 64.1
